The text below walks through data of US7173004B2, “Macrocyclic isoquinoline peptide inhibitors of hepatitis C virus” (Bristol-Myers Squibb Company, priority 2003, dated 2007).

The structures appear in SMILES notation. Where a name gives a salt, the structure may show the parent alone.

The subject of the assay is HCV replicon (HCV 1b-377-neo replicon cells, Huh7). Nature of the assay: HCV replicon cell-based FRET assay. The following applies: Hepatitis C virus, Huh-7. As to the method: HCV Replion assays were utilized in the present invention, and were prepared, conducted and validated as follows:
An HCV replicon whole cell system was established as described by Lohmann V, Korner F, Koch J, Herian U, Theilmann L, Bartenschlager R., Science 285(5424): 110–3 (1999). This system enabled us to evaluate the effects of our HCV Protease compounds on HCV RNA replication. Briefly, using the HCV strain 1B sequence described in the Lohmann paper (Assession number: AJ238799), an HCV cDNA was synthesized by Operon Technologies, Inc. (Alameda, Calif.), and the full-length replicon was then assembled in plasmid pGem9zf(+) (Promega, Madison, Wis.) using standard molecular biology techniques. The replicon consists of (i) the HCV 5′ UTR fused to the first 12 amino acids of the capsid protein, (ii) the neomycin phosphotransferase gene (neo), (iii) the IRES from encephalomyocarditis virus (EMCV), and (iv) HCV NS3 to NS5B genes and the HCV 3′ UTR. Plasmid DNAs were linearized with ScaI and RNA transcripts were synthesized in vitro using the T7 MegaScript transcription kit (Ambion, Austin, Tex.) according to manufacturer's directions. To generate cell lines, 4×10^6 Huh-7 cells (kindly provided by R. Bartenschlager and available from Health Science Research Resources Bank, Japan Health Sciences Foundation) were electroporated (GenePulser System, Bio-Rad) with 10 microgram(“μg”) of RNA transcript and plated into 100-mm dishes. After 24 h, selective media containing 1.0 milligrams/milliliter (“mg/ml”) G418 was added and media was changed every 3 to 5 days. Approximately 4 weeks after electroporation, small colonies were visible which were isolated and expanded for further analysis. These cell lines were maintained at 37° C., 5% CO2, 100% relative humidity in DMEM (Cat# 11965-084) Gibco-BRL, Rockville, Md., with 10% heat inactivated calf serum (Sigma), 10 ml of 100× penicillin/streptomycin (Cat# 15140-122) Gibco-BRL, Rockville, Md., Geneticin (Cat# 10131-027) Gibco-BRL, Rockville, Md. at 1 mg/ml. One of the cell lines (deposited as ATCC Accession No. PTA-4583 in the American Type Culture Collection) which had approximately 3,000 copies of HCV replicon RNA/cell was used for development of the assay (HCV 1b-377-neo replicon cells).
Huh7 cells, constitutively expressing the HCV replicon, were grown in Dulbecco's Modified Eagle Media (DMEM) containing 10% Fetal calf serum (FCS) and 1 mg/ml G418 (Gibco-BRL). Cells were seeded the night before (1.5×10^4 cells/well) in 96-well tissue-culture sterile plates. Compound and no compound controls were prepared in DMEM containing 4% FCS, 1:100 Penicillin/Streptomysin, 1:100 L-glutamine and 5% DMSO in the dilution plate (0.5% DMSO final concentration in the assay). Compound/DMSO mixes were added to the cells and incubated for 4 days at 37° C. After 4 days, cells were first assessed for cytotoxicity using alamar Blue (Trek Diagnotstic Systems) for a CC50 reading. The toxicity of compound (CC50) was determined by adding 1/10th volume of alamar Blue to the media incubating the cells. After 4 hr, the fluorescence signal from each well was read, with an excitation wavelength at 530 nm and an emission wavelength of 580 nm, using the Cytofluor Series 4000 (Perspective Biosystems). Plates were then rinsed thoroughly with Phosphate-Buffered Saline (PBS) (3 times 150 μl). The cells were lysed with 25 μl of a lysis assay reagent containing an HCV protease substrate (5× cell Luciferase cell culture lysis reagent (Promega #E153A) diluted to 1× with distilled water, NaCl added to 150 mM final, the FRET peptide diluted to 10 μM final from a 2 mM stock in 100% DMSO). The HCV protease substrate (FRET peptide; AnaSpec, Inc. cat #22991, described by Taliani et al. in Anal. Biochem. 240(2):60–67 (1996)) contains a fluorescence donor, EDANS, near one end of the peptide and an acceptor, DABCYL, near the other end. […]
As usually defined, the EC50 is the concentration giving half of the maximal effect. Take `CCC1(S(=O)(=O)NC(=O)C23CC2C=CCOCCCC(NC(=O)NC2CCCC2)C(=O)N2CC(Oc4nccc5cc(OC)ccc45)CC2C(=O)N3)CC1` (centres unmarked) [Compound 38]: the EC50 is less than 50 nM.
For `COc1ccc2c(OC3CC4C(=O)NC5(C(=O)NS(=O)(=O)C6CC6)CC5C=CCCCOC(C)C(NC(=O)OCC(C)(C)C)C(=O)N4C3)nccc2c1` (centres unmarked) [Compound 63] the value was 50 to 500 nM; for `COc1ccc2c(OC3CC4C(=O)NC5(C(=O)NS(=O)(=O)C6(C)CC6)CC5C=CCCCSCC(NC(=O)OCC(C)(C)C)C(=O)N4C3)nccc2c1` (centres unmarked) [Compound 42], less than 50 nM.
In the case of `CCC1(S(=O)(=O)NC(=O)C23CC2C=CCCCCCC(NC(=O)OC(C)(C)C)C(=O)N2CC(Oc4nccc5cc(OC)ccc45)CC2C(=O)N3)CC1` (centres unmarked) [Compound 54] it was less than 50 nM.
For the compound `N[C@H]1CCCCC/C=C\[C@@H]2C[C@@]2(C(=O)NS(=O)(=O)C2CC2)NC(=O)[C@@H]2C[C@@H](Oc3nccc4ccccc34)CN2C1=O` [Compound 11, Cyclopropanesulfonic acid [14-amino-18-(isoquinolin-1-yloxy)-2,15-dioxo-3,16-diaza-tricyclo[14.3.0.0^4,6]nonadec-7-ene-4-carbonyl]-amide bis hydrochloride], the EC50 lay within 50 to 500 nM.
For `CCC1(S(=O)(=O)NC(=O)C23CC2C=CCCCOC(C)C(NC(=O)NC2CCCC2)C(=O)N2CC(Oc4nccc5cc(OC)ccc45)CC2C(=O)N3)CC1` (centres unmarked) [Compound 73] the value was 50 to 500 nM; for `COc1ccc2c(OC3CC4C(=O)NC5(C(=O)NS(=O)(=O)C6(C)CC6)CC5C=CCCCS(=O)(=O)CC(NC(=O)OC(C)(C)C)C(=O)N4C3)nccc2c1` (centres unmarked) [Compound 49], 500 to 5000 nM; for `CCC1(S(=O)(=O)NC(=O)C23CC2C=CCOCCCC(NC(=O)OC(C)(C)C)C(=O)N2CC(Oc4nccc5cc(OC)ccc45)CC2C(=O)N3)CC1` (centres unmarked) [Compound 30], less than 50 nM.
For `COC(=O)N[C@H]1CCCCC/C=C\[C@@H]2C[C@@]2(C(=O)NS(=O)(=O)C2CC2)NC(=O)[C@@H]2C[C@@H](Oc3nccc4ccccc34)CN2C1=O` [Compound 12, [4-Cyclopropanesulfonylaminocarbonyl-18-(isoquinolin-1-yloxy)-2,15-dioxo-3,16-diaza-tricyclo[14.3.0.0^4,6]nonadec-7-en-14-yl]-carbamic acid methyl ester] the value was less than 50 nM.
In turn, `COc1ccc2c(OC3CC4C(=O)NC5(C(=O)NS(=O)(=O)C6CC6)CC5C=CCCCSCC(NC(=O)OC(C)C)C(=O)N4C3)nccc2c1` (centres unmarked) [Compound 74] registered an EC50 of less than 50 nM.
For `CC1(OC(=O)N[C@H]2CCCCC/C=C\[C@@H]3C[C@@]3(C(=O)NS(=O)(=O)C3CC3)NC(=O)[C@@H]3C[C@@H](Oc4nccc5ccccc45)CN3C2=O)CCC1` [Compound 56, [(Z)-(1S,4R,14S,18R)-4-cyclopropanesulfonylaminocarbonyl-18-(isoquinolin-1-yloxy)-2,15-dioxo-3,16-diaza-tricyclo[14.3.0.0^4,6]nonadec-7-en-14-yl]-carbamic acid 1-methyl-cyclobutyl ester] the value was less than 50 nM.
For `CCC1(S(=O)(=O)NC(=O)C23CC2C=CCCCOC(C)C(NC(=O)OCC(C)(C)C)C(=O)N2CC(Oc4nccc5cc(OC)ccc45)CC2C(=O)N3)CC1` (centres unmarked) [Compound 71] the value was 50 to 500 nM; for `COc1ccc2c(O[C@@H]3C[C@H]4C(=O)N[C@]5(C(=O)O)C[C@H]5/C=C\CCCO[C@H](C)[C@H](NC(=O)OC(C)(C)C)C(=O)N4C3)nccc2c1` [Compound 61], 5000 to 50000 nM.
As to `CCC1(S(=O)(=O)NC(=O)C23CC2C=CCOCCCC(NC(=O)OC(C)C)C(=O)N2CC(Oc4nccc5cc(OC)ccc45)CC2C(=O)N3)CC1` (centres unmarked) [Compound 37], the EC50 was less than 50 nM.
In the case of `COc1ccc2c(OC3CC4C(=O)NC5(C(=O)O)CC5C=CCOCCCC(NC(=O)OC(C)(C)C)C(=O)N4C3)nccc2c1` (centres unmarked) [Compound 27, 14-tert-Butoxycarbonylamino-18-(6-methoxy-isoquinolin-1-yloxy)-2,15-dioxo-10-oxa-3,16-diaza-tricyclo[14.3.0.0^4,6]nonadec-7-ene-4-carboxylic acid] it was 500 to 5000 nM.
For `COc1ccc2c(OC3CC4C(=O)NC5(C(=O)NS(=O)(=O)C6CC6)CC5C=CCOCCCC(NC(=O)NC5CCCC5)C(=O)N4C3)nccc2c1` (centres unmarked) [Compound 33] the value was less than 50 nM; for `COc1ccc2c(OC3C[C@H]4C(=O)N[C@]5(C(=O)NS(=O)(=O)C6CC6)C[C@H]5/C=C\CCCSC[C@H](NC(=O)OC(C)(C)C)C(=O)N4C3)nccc2c1` (some centres unmarked) [Compound 18B, [4-Cyclopropanesulfonylaminocarbonyl-18-(6-methoxy-isoquinolin-1-yloxy)-2,15-dioxo-12-thia-3,16-diaza-tricyclo[14.3.0.0^4,6]nonadec-7-en-14-yl]-carbamic acid tert-butyl ester], less than 50 nM.
In the case of `COc1ccc2c(OC3CC4C(=O)NC5(C(=O)NS(=O)(=O)C6CC6)CC5C=CCCCOC(C)C(NC(=O)OC(C)C)C(=O)N4C3)nccc2c1` (centres unmarked) [Compound 64] it was 50 to 500 nM; in that of `CC(C)OC(=O)N[C@H]1CCCCC/C=C\[C@@H]2C[C@@]2(C(=O)NS(=O)(=O)C2CC2)NC(=O)[C@@H]2C[C@@H](Oc3nccc4ccccc34)CN2C1=O` [Compound 16, [4-Cyclopropanesulfonylaminocarbonyl-18-(isoquinolin-1-yloxy)-2,15-dioxo-3,16-diaza-tricyclo[14.3.0.0^4,6]nonadec-7-en-14-yl]-carbamic acid isopropyl ester], less than 50 nM; in that of `O=C(NC1CCCCCC=CC2CC2(C(=O)NS(=O)(=O)C2CC2)NC(=O)C2CC(Oc3nccc4ccccc34)CN2C1=O)OC1CCCC1` (centres unmarked) [Compound 20], less than 50 nM.
The compound `CCC1(S(=O)(=O)NC(=O)C23CC2C=CCCCOC(C)C(NC(=O)OC(C)C)C(=O)N2CC(Oc4nccc5cc(OC)ccc45)CC2C(=O)N3)CC1` (centres unmarked) [Compound 72] came in with a half-maximal effective concentration (EC50) of 50 to 500 nM.
`CC(C)(C)OC(=O)NC1CSCCCC=CC2CC2(C(=O)NS(=O)(=O)C2CC2)NC(=O)C2CC(Oc3nccc4c(Cl)cccc34)CN2C1=O` (centres unmarked) [Compound 78]: the EC50 is less than 50 nM.
With `O=C(N[C@H]1CCCCC/C=C\[C@@H]2C[C@@]2(C(=O)NS(=O)(=O)C2CC2)NC(=O)[C@@H]2C[C@@H](Oc3nccc4ccccc34)CN2C1=O)OC1CCOCC1` [Compound 14, [4-Cyclopropanesulfonylaminocarbonyl-18-(isoquinolin-1-yloxy)-2,15-dioxo-3,16-diaza-tricyclo[14.3.0.0^4,6]nonadec-7-en-14-yl]-carbamic acid tetrahydro-pyran-4-yl ester], the EC50 was less than 50 nM.
In the case of `COc1ccc2c(OC3CC4C(=O)NC5(C(=O)NS(=O)(=O)C6CC6)CC5C=CCOCCCC(NC(=O)OCC(C)(C)C)C(=O)N4C3)nccc2c1` (centres unmarked) [Compound 32] it was less than 50 nM.
Compound `CC(C)(C)OC(=O)NC1CCCCCC=CC2CC2(C(=O)NS(=O)(=O)C2CC2)NC(=O)C2CC(Oc3nc(Cl)cc4ccccc34)CN2C1=O` (centres unmarked) [Compound 57] had an EC50 of less than 50 nM.
In turn, `CC(C)S(=O)(=O)NC(=O)[C@@]12C[C@H]1/C=C\CCCCC[C@H](NC(=O)OC(C)(C)C)C(=O)N1C[C@H](Oc3nccc4ccccc34)C[C@H]1C(=O)N2` [Compound 3, [18-(Isoquinolin-1-yloxy)-2,15-dioxo-4-(propane-2-sulfonylaminocarbonyl)-3,16-diaza-tricyclo-[14.3.0.0^4,6]nonadec-7-en-14-yl]-carbamic acid tert-butyl ester] had an EC50 of 50 to 500 nM.
